Experimental data from patent US10508085B2, “Compounds and methods for IDO and TDO modulation, and indications therefor” (Plexxikon Inc., priority 2016, dated 2019).

Key:
[1] = target: T1, human IDO (IDO1-expressing HEK293 cells) (Homo sapiens, UniProt P14902); experiment: Cell based kynurenine assay, IDO1-expressing HEK293 cell clones; conditions: IDO1-expressing HEK293 cells, 24 hours, geometric mean; read-out: HEK293 IDO1 Kynurenine GMean IC50 (μM) (Cellular Assay)
T1 construct: expressed in transfected cells
T1 sequence (P14902 whole entry): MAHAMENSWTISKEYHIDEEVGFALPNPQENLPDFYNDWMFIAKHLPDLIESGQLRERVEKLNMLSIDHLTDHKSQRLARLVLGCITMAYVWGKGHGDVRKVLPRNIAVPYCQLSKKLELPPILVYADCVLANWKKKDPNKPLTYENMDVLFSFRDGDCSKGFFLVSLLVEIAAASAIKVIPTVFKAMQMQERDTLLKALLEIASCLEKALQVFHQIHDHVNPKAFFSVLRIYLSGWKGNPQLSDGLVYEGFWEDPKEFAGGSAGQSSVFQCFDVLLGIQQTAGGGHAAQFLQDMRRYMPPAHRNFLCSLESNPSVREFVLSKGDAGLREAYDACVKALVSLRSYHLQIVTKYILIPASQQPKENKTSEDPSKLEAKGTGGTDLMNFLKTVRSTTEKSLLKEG
Outline: (§1)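 HEK293 clones stably expressing human IDO1 or human TDO (CMV promoter), 2.5×10^4 cells/well, given serial compound dilutions for 24 h. Kynurenine measured in supernatant; inhibition relative to cell/0.2% DMSO and media-only controls. IC50 by nonlinear regression.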

[2] = target: T2, Human Tryptophan 2,3-dioxygenase (TDO) (Homo sapiens, UniProt P48775); experiment: Human TDO enzymatic assay (kynurenine level); assay type: biochemical; conditions: 1 nM TDO, 350 μM L-Trp; geometric mean; read-out: TDO GMean: IC50 (μM) (Biochemical Assay)
T2 construct: His tag (N); made in house; host or cells: E. coli
T2 sequence (P48775 whole entry): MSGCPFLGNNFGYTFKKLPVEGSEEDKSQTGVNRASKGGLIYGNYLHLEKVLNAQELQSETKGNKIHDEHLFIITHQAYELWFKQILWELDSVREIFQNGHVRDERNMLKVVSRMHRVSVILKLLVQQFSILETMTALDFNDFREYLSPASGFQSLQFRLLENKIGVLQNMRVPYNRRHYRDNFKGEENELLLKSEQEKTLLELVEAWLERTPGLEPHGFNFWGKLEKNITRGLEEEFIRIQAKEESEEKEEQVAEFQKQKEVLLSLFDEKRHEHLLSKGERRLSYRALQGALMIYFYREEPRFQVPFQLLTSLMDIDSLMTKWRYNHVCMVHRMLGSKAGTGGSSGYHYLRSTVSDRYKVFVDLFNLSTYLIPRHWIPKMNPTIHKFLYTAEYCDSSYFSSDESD
Outline: (§2)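 Compound is mixed with His-tagged enzyme from E. coli in pH 6.5 phosphate buffer containing ascorbate, methylene blue and catalase, at room temperature. IDO uses 6 nM enzyme and 10 μM Trp for 20 min. TDO uses 1 nM enzyme and 350 μM Trp for 70 min. TCA stops the reaction, and IC50 is derived from kynurenine levels.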

[3] = target: T3, human TDO (TDO-expressing HEK293 cells) (Homo sapiens, UniProt P48775); experiment: Cell based kynurenine assay, TDO-expressing HEK293 cell clones; conditions: TDO-expressing HEK293 cells, 24 hours, geometric mean; read-out: HEK293 TDO Kynurenine GMean IC50 (μM) (Cellular Assay)
T3 construct: expressed in transfected cells
T3 sequence (P48775 whole entry): as above
Outline: as §1

[4] = target: T4, Human Indoleamine 2,3-dioxygenase (IDO) (Homo sapiens, UniProt P14902); experiment: Human IDO enzymatic assay (kynurenine level); assay type: biochemical; conditions: 6 nM IDO, 10 μM L-Trp; geometric mean; read-out: IDO1 GMean: IC50 (μM) (Biochemical Assay)
T4 construct: His tag (N); made in house; host or cells: E. coli
T4 sequence (P14902 whole entry): as the sequence (P14902 whole entry) above
Outline: as §2

IC50 [1] [µM]	IC50 [2] [µM]	IC50 [3] [µM]	IC50 [4] [µM]	Structure (SMILES)
0.0001 to 10	0.0001 to 10	0.0001 to 10	0.0001 to 10	CC(C)(C1CCN(C(=O)Nc2cccnc2)CC1)[C@@H](O)c1cc(Cl)cc2cn[nH]c12 [Compound P-0430, (R)-4-(1-(5-chloro-1H-indazol-7-yl)-1-hydroxy-2-methylpropan-2-yl)-N-(pyridin-3-yl)piperidine-1-carboxamide]
0.0001 to 10	0.0001 to 10	0.0001 to 10	> 200	CC(C)(C1CCN(C(=O)Nc2ccc(Cl)cc2)CC1)[C@@H](O)c1cc(Cl)cc2cn[nH]c12 [Compound P-0433, (R)-4-(1-(5-chloro-1H-indazol-7-yl)-1-hydroxy-2-methylpropan-2-yl)-N-(4-chlorophenyl) piperidine-1-carboxamide]
0.0001 to 10	0.0001 to 10	0.0001 to 10	0.0001 to 10	COCC(=O)N1CCC(C(C)(C)[C@@H](O)c2cc(Cl)cc3cn[nH]c23)CC1 [Compound P-0435, (R)-1-(4-(1-(5-chloro-1H-indazol-7-yl)-1-hydroxy-2-methylpropan-2-yl)piperidin-1-yl)-2-methoxyethan-1-one]
0.0001 to 10	0.0001 to 10	0.0001 to 10	0.0001 to 10	CCC(=O)N1CCC(C(C)(C)[C@H](O)c2cc(Cl)cc3cn[nH]c23)CC1 [Compound P-0444, (S)-1-(4-(1-(5-chloro-1H-indazol-7-yl)-1-hydroxy-2-methylpropan-2-yl)piperidin-1-yl)propan-l-one]
0.0001 to 10	0.0001 to 10	0.0001 to 10	0.0001 to 10	CC(C)(C1CCN(C(=O)Nc2ccc(C#N)cc2)CC1)[C@H](O)c1cc(Cl)cc2cn[nH]c12 [Compound P-0447, (S)-4-(1-(5-chloro-1H-indazol-7-yl)-1-hydroxy-2-methylpropan-2-yl)-N-(4-cyanophenyl) piperidine-1-carboxamide]
0.0001 to 10	0.0001 to 10	0.0001 to 10	0.0001 to 10	CC(C)(C1CCN(C(=O)CC2CCS(=O)(=O)CC2)CC1)C(O)c1cc(Cl)cc2cn[nH]c12 (stereo not drawn) [Compound P-0448, 1-(4-(1-(5-chloro-1H-indazol-7-yl)-1-hydroxy-2-methylpropan-2-yl)piperidin-l-yl)-2-(1,1-dioxidotetrahydro-2H-thiopyran-4-yl)ethan-1-one]
0.0001 to 10	0.0001 to 10	0.0001 to 10	0.0001 to 10	CC(C)(C1CCN(C(=O)NC2CCOCC2)CC1)C(O)c1cc(Cl)cc2cn[nH]c12 (centres unmarked) [Compound P-0451, 4-(1-(5-chloro-1H-indazol-7-yl)-1-hydroxy-2-methylpropan-2-yl)-N-(tetrahydro-2H-pyran-4-yl)piperidine-1-carboxamide]

More lines, now with the values behind:

Structure (SMILES)	IC50 [1] [µM]	IC50 [2] [µM]	IC50 [3] [µM]	IC50 [4] [µM]
CC(C)NC(=O)N1CCC(C(C)(C)[C@@H](O)c2cc(Cl)cc3cn[nH]c23)CC1 [Compound P-0429, (R)-4-(1-(5-chloro-1H-indazol-7-yl)-1-hydroxy-2-methylpropan-2-yl)-N-isopropylpiperidine-1-carboxamide]	> 10	0.0001 to 10	0.0001 to 10	0.0001 to 10
CC(C)(C1CCN(C(=O)Nc2ccccc2)CC1)[C@@H](O)c1cc(Cl)cc2cn[nH]c12 [Compound P-0431, (R)-4-(1-(5-chloro-1H-indazol-7-yl)-1-hydroxy-2-methylpropan-2-yl)-N-phenylpiperidine-1-carboxamide]	0.0001 to 10	0.0001 to 10	0.0001 to 10	10 to 100
CC(C)(C1CCN(C(=O)Nc2ccccc2Cl)CC1)[C@@H](O)c1cc(Cl)cc2cn[nH]c12 [Compound P-0432, (R)-4-(1-(5-chloro-1H-indazol-7-yl)-1-hydroxy-2-methylpropan-2-yl)-N-(2-chlorophenyl) piperidine-1-carboxamide]	> 10	0.0001 to 10	0.0001 to 10	0.0001 to 10
CC(C)(C1CCN(C(=O)Nc2cccc(F)c2)CC1)[C@@H](O)c1cc(Cl)cc2cn[nH]c12 [Compound P-0434, (R)-4-(1-(5-chloro-1H-indazol-7-yl)-1-hydroxy-2-methylpropan-2-yl)-N-(3-fluorophenyl) piperidine-1-carboxamide]	0.0001 to 10	0.0001 to 10	0.0001 to 10	10 to 100
CC(C)(C1CCN(C(=O)CC#N)CC1)[C@@H](O)c1cc(Cl)cc2cn[nH]c12 [Compound P-0436, (R)-3-(4-(1-(5-chloro-1H-indazol-7-yl)-1-hydroxy-2-methylpropan-2-yl)piperidin-1-yl)-3-oxopropanenitrile]	0.0001 to 10	0.0001 to 10	0.0001 to 10	0.0001 to 10
CC(C)(C1CCN(C(=O)Nc2ccccc2C(F)(F)F)CC1)[C@@H](O)c1cc(Cl)cc2cn[nH]c12 [Compound P-0437, (R)-4-(1-(5-chloro-1H-indazol-7-yl)-1-hydroxy-2-methylpropan-2-yl)-N-(2-(trifluoromethyl)phenyl)piperidine-1-carboxamide]	> 10	0.0001 to 10	> 10	0.0001 to 10
CC(C)(C(O)c1cc(Cl)cc2cn[nH]c12)[C@H]1C[C@H]2CC[C@@H](C1)N2C(=O)NCC(F)(F)F (stereo partly drawn) [Compound P-0438, (1R,3r,5S)-3-(1-(5-chloro-1H-indazol-7-yl)-1-hydroxy-2-methylpropan-2-yl)-N-(2,2,2-trifluoroethyl)-8-azabicyclo[3.2.1] octane-8-carboxamide]	0.0001 to 10	0.0001 to 10	0.0001 to 10	0.0001 to 10
CC(C)(C(O)c1cc(Cl)cc2cn[nH]c12)[C@H]1C[C@H]2CC[C@@H](C1)N2C(=O)NC1CC1 (stereo partly drawn) [Compound P-0439, (1R,3r,5S)-3-(1-(5-chloro-1H-indazol-7-yl)-1-hydroxy-2-methylpropan-2-yl)-N-cyclopropyl-8-azabicyclo [3.2.1]octane-8-carboxamide]	0.0001 to 10	0.0001 to 10	0.0001 to 10	0.0001 to 10
CC(C)(C(O)c1cc(Cl)cc2cn[nH]c12)[C@H]1C[C@H]2CC[C@@H](C1)N2C(=O)Nc1ccc(F)cc1 (stereo partly drawn) [Compound P-0440, (1R,3r,5S)-3-(1-(5-chloro-1H-indazol-7-yl)-1-hydroxy-2-methylpropan-2-yl)-N-(4-fluorophenyl)-8-azabicyclo[3.2.1] octane-8-carboxamide]	0.0001 to 10	0.0001 to 10	0.0001 to 10	0.0001 to 10
CC(C)(C1CCN(C(=O)CN2CCOCC2)CC1)C(O)c1cc(Cl)cc2cn[nH]c12 (centres unmarked) [Compound P-0441, 1-(4-(1-(5-chloro-1H-indazol-7-yl)-1-hydroxy-2-methylpropan-2-yl)piperidin-1-yl)-2-morpholinoethan-1-one]	0.0001 to 10	0.0001 to 10	0.0001 to 10	0.0001 to 10
CNC(=O)N1[C@@H]2CC[C@H]1C[C@@H](C(C)(C)C(O)c1cc(Cl)cc3cn[nH]c13)C2 (stereo partly drawn) [Compound P-0442, (1R,3r,5S)-3-(1-(5-chloro-1H-indazol-7-yl)-1-hydroxy-2-methylpropan-2-yl)-N-methyl-8-azabicyclo[3.2.1] octane-8-carboxamide]	0.0001 to 10	0.0001 to 10	0.0001 to 10	0.0001 to 10
CC(C)(C1CCN(C(=O)CC2CCOCC2)CC1)C(O)c1cc(Cl)cc2cn[nH]c12 (centres unmarked) [Compound P-0443, 1-(4-(1-(5-chloro-1H-indazol-7-yl)-1-hydroxy-2-methylpropan-2-yl)piperidin-1-yl)-2-(tetrahydro-2H-pyran-4-yl)ethan-1-one]	0.0001 to 10	0.0001 to 10	0.0001 to 10	0.0001 to 10
CNC(=O)N1CCC(C(C)(C)[C@H](O)c2cc(Cl)cc3cn[nH]c23)CC1 [Compound P-0445, (S)-4-(1-(5-chloro-1H-indazol-7-yl)-1-hydroxy-2-methylpropan-2-yl)-N-methylpiperidine-1-carboxamide]	0.0001 to 10	0.0001 to 10	0.0001 to 10	0.0001 to 10
COCCNC(=O)N1CCC(C(C)(C)[C@H](O)c2cc(Cl)cc3cn[nH]c23)CC1 [Compound P-0446, (S)-4-(1-(5-chloro-1H-indazol-7-yl)-1-hydroxy-2-methylpropan-2-yl)-N-(2-methoxyethyl) piperidine-1-carboxamide]	0.0001 to 10	0.0001 to 10	0.0001 to 10	0.0001 to 10
CC(C)(C1CCN(C(=O)N[C@H]2CC[C@H](C)CC2)CC1)C(O)c1cc(Cl)cc2cn[nH]c12 (some centres unmarked) [Compound P-0449, 4-(1-(5-chloro-1H-indazol-7-yl)-1-hydroxy-2-methylpropan-2-yl)-N-((1r,4r)-4-methylcyclohexyl) piperidine-1-carboxamide]	0.0001 to 10	0.0001 to 10	0.0001 to 10	0.0001 to 10
CC(C)(C1CCN(C(=O)NC2CCN(S(C)(=O)=O)CC2)CC1)C(O)c1cc(Cl)cc2cn[nH]c12 (centres unmarked) [Compound P-0450, 4-(1-(5-chloro-1H-indazol-7-yl)-1-hydroxy-2-methylpropan-2-yl)-N-(1-(methylsulfonyl)piperidin-4-yl)piperidine-1-carboxamide]	0.0001 to 10	0.0001 to 10	0.0001 to 10	0.0001 to 10
